Reference: US20240174596A1 (Northwestern University, priority 2021, published 2024)
Where a name gives a salt, the structure may show the parent alone.

How the values were obtained:
[1] = target: T1, Asp-AT (Sus scrofa, UniProt P00503); test: Inhibition of Asp-AT; type: biochemical, porcine
T1 construct: L-aspartate aminotransferase (Asp-AT) from the porcine heart; purchased Sigma-Aldrich G2751-2KU; host or cells: porcine heart
Experimental: All reagents for enzyme purification and assays were purchased from Sigma-Aldrich (St. Louis, MO, USA). […] All the enzyme assays for the inactivation, partition ratio, and dialysis experiment were recorded on a Synergy H1 hybrid multimode microplate reader (Biotek, USA) with transparent 96-well plates. […]
potassium phosphate at pH 7.4, 5.55 mM α-ketoglutarate, 1.11 mM NADH, 5.55 mM […], 5.55 units of malic dehydrogenase, and various concentrations of SS-1-148. […] The plate was shaken at room temperature for 1 min, and the absorbance was measured at 340 nm every 10 s for 90 min based on the conversion of NADH to NAD^+. The remaining Asp-AT activity percentage was calculated according to the corresponding concentrations. […]

[2] = target: CYP 3A4 (Homo sapiens, UniProt P08684); test: CYP inhibition 3A4; type: in vitro ADME
Chain of CYP 3A4 (P08684 whole entry): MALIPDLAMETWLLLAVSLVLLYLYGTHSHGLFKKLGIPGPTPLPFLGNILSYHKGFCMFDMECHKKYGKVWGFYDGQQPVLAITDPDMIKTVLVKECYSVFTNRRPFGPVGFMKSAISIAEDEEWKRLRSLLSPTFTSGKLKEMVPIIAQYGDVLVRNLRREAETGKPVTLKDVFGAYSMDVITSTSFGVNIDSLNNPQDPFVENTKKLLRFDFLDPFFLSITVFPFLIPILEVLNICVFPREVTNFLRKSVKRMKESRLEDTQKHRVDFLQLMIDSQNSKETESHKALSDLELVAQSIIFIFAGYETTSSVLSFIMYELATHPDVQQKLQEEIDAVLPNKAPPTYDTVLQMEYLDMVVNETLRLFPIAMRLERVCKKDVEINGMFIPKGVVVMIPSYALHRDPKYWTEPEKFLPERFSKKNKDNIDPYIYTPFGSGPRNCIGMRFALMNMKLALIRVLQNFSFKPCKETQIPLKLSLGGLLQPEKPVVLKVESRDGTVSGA

[3] = Plasma protein binding, human; type: in vitro ADME
[4] = target: T2, CYP 1A2 (Homo sapiens, UniProt P05177); test: CYP inhibition 1A2; type: in vitro ADME
T2 sequence (P05177 1-516): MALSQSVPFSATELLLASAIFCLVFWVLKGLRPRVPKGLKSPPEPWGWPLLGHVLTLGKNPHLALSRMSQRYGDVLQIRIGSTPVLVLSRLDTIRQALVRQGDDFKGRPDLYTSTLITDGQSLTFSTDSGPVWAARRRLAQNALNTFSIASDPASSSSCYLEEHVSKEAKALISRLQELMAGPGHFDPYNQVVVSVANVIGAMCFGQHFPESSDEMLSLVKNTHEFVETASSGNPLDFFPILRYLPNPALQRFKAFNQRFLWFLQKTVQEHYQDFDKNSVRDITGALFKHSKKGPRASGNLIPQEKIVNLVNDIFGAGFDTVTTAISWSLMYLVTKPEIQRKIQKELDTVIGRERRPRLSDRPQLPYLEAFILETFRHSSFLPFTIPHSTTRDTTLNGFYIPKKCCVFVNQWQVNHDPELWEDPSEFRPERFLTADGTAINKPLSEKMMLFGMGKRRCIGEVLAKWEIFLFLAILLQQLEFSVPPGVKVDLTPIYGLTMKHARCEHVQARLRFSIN

[5] = target: CYP 2D6 (Homo sapiens, UniProt P10635); test: CYP inhibition 2D6; type: in vitro ADME
Chain of CYP 2D6 (P10635 whole entry): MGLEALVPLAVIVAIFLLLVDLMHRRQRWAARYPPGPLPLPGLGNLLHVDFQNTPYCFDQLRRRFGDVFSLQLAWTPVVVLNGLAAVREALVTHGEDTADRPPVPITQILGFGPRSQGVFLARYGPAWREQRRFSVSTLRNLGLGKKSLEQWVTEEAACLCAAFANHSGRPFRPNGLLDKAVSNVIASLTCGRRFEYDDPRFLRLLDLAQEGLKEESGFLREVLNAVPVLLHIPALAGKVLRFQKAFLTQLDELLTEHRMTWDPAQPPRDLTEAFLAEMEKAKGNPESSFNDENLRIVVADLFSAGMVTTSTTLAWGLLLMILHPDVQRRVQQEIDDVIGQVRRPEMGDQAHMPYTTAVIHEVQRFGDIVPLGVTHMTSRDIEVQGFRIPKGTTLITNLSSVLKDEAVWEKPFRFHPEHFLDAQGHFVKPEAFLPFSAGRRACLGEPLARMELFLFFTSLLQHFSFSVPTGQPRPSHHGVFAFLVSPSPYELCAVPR

[6] = target: T3, hOAT (Homo sapiens, UniProt P04181); test: Denaturing intact protein mass spectrometry of inactivated hOAT; conditions: hOAT fully inactivated; denaturing intact LC-MS
T3 construct: made in house; host or cells: E. coli BL21(DE3)
T3 sequence (P04181 26-439): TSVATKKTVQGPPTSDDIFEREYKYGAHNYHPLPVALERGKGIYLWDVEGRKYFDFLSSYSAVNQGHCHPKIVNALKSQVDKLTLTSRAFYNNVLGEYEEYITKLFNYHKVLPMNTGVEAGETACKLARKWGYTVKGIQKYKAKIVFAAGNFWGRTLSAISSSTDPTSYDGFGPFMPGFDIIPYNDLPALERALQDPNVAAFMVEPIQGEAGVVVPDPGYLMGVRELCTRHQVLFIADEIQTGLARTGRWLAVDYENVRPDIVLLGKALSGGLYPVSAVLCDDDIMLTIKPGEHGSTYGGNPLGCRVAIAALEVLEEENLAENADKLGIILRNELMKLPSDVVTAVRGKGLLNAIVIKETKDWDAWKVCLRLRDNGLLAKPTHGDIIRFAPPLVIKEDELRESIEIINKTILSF
Excerpt: The majority of hOAT remained unmodified (FIG. 5A, top) in comparison with native hOAT as a control (FIG. 5A, bottom). […] However, one would expect a higher abundance of covalently adducted enzyme under these conditions where the enzyme is fully inactivated. This finding thus supported a major non-covalent, inactivation mechansim between hOAT and SS-1-148.
Treated and unmodified purified hOAT samples were desalted ten times with Optima-grade water (Fisher) on Amicon Ultra 10 KDa molecular weight spin filters (Millipore). To chromatographically resolve protein. 0.5 μg of protein was loaded onto a 3 cm PLRP-S (Agilent) trap column using a Dionex Ultimate3000 liquid chromatography system (Thermo Fisher). The protein analyte was washed with a 10-min isocratic gradient of 10% Solvent B (95% acetonitrile/5% H2O/0.2% formic acid) and 90% Solvent A (5% acetonitrile/95% H20/0.2% formic acid). Protein was resolved on an in-house made 75 μm ID×15 cm long nanopore capillary column packed with PLRP-S resin (Agilent). […]

T1 sequence (P00503 2-413 limits assumed): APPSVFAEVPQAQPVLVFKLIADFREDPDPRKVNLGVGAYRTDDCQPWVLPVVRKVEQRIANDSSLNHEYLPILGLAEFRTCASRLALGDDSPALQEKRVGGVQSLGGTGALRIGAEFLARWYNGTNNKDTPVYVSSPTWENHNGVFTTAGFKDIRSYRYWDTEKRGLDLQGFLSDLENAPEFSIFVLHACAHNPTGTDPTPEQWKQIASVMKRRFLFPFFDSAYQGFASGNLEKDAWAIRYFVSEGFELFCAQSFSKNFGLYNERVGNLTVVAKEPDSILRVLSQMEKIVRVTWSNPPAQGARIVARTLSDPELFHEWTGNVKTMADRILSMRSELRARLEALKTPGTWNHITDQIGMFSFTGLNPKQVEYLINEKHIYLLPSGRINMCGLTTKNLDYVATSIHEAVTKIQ

Question: With `N[C@H]1C=C(C(=O)O)CC1(F)F` [SS-1-148, (S)-3-Amino-4,4-difluorocyclopent-1-enecarboxylic acid hydrochloric acid salt] as the compound, how does the Ki ([1]; read-out: Off-target effects (Ki, mM) Asp-AT) read?
Answer: Its Ki is greater than 20 mM.

Question: What about the “inhibition on Asp-AT” value ([1]; up to 10 mM) of the same compound?
Answer: The value was “did not show noticeable inhibition”.

Question: And the IC50 [2]?
Answer: The IC50 was greater than 100 µM.

Question: What about the fraction unbound [3] of the same compound?
Answer: The fraction unbound was 1.

Question: What about the IC50 [4] of the same compound?
Answer: Its IC50 is greater than 100 µM.

Question: What about the IC50 [5] of the same compound?
Answer: The IC50 was greater than 100 µM.

Question: And the hOAT covalently modified [6]?
Answer: Its hOAT covalently modified is roughly 16%.
